# pIC50: −log10 of the molar value.
# What was measured:
# [1] = test system: human colorectal cancer HCT 116 cells; experiment: SRB assay, growth of HCT 116 cells; assay type: cell-based; settings: 72 hours; for growth of HCT 116 cells: 100, 50, 25 and 12.5 μM; for pIC50: SRB
# Procedure: In order to compare the inhibitory effect of thio-Cl-IB-MECA of the present invention on the inhibition of human colorectal cancer HCT 116 cells with the effects of other A3 adenosine receptor agonists, IB-MECA and Cl-IB-MECA, a sulforhodamine B (SRB) assay was performed.
# Specifically, 10 μL of a solution of thio-Cl-IB-MECA in 10% dimethylsulfoxide (DMSO) was loaded in each well of a 96-well plate in triplicate at concentrations of 100, 50, 25 and 12.5 μM, thus making a test plate. Cells were diluted to a density of 5×10^4 cells/ml with 10% FBS-containing RPMI 1640 medium supplemented with antibiotics-antimycotics, and 190 μL of the cell suspension was added to each well so as to reach a total volume of 200 μL and was cultured in a 5% CO2 incubator at 37° C. for 3 days. At the same time, 190 μL of the same cell suspension was loaded into each of 16 wells or more of a fresh 96-well plate containing no sample (thio-Cl-IB-MECA) and was cultured in a 5% CO2 incubator at 37° C. for 30 minutes, thereby determining reference date. After the culture, 50 μL of 50% trichloroacetic acid (TCA) was added to each well, and the cells were fixed by culture at 4° C. for 1 hour. Then, the well plate was washed five times with tap water and dried. 100 μL of a 1% acetic acid solution containing […] sulforhodamine B (SRB) was added to each well to stain the cells, and the well plate was allowed to stand at room temperature for 1 hour. After the well plate has been washed five times with 1% acetic acid and sufficiently dried, 200 μL of 100 mM Tris-base was added to each well, and the bound staining liquid was dissolved and sufficiently shaken in a shaker. Then, the absorbance at 515 nm was measured using an ELISA microplate reader. Based on the measured absorbance, the cell viability of the test group relative to the control group was calculated using equation 2 above. Based on the viability at each concentration, the IC50 value of the test sample was calculated using TableCurve program.
# In the cases of IB-MECA or Cl-IB-MECA, the viability of cancer cells was examined in the same manner as the case of thio-Cl-IB-MECA.
# [2] = test system: iNOS (inducible nitric oxide synthase); experiment: NO production inhibitory activity (iNOS assay) in LPS-stimulated RAW 264.7 cells; assay type: cell-based, mouse; settings: LPS 1 μg/ml; for pIC50: RAW 264.7 cells, 20 hours, read-out: IC50 of NO production inhibition
# Procedure: A test was carried out to examine the inhibitory activity of the inhibitory activity of the inventive composition on the enzyme iNOS (inducible nitric oxide synthase) whose expression increases when inflammatory reactions and traumas exist.
# Specifically, RAW 264.7 cells (5×10^5 cells/ml) were added to a 24-well plate with 10% FBS-containing DMEM medium in an amount of 1 ml per well and cultured for 24 hours. […] After 30 minutes, 1 μg/ml of LPS was added to the cells which were then cultured in a 5% CO2 incubator at 37° C. for 20 hours (test groups). As a blank, RAW cells cultured without addition of LPS and the inventive composition were used, and as a control group, RAW cells cultured with addition of only LPS were used.
# 100 μl of the supernatant of each well was taken and allowed to react with 90 μl of each of sulfanilamide solution and N-(1-naphtyl)-ethylenediamine solution. Then, each reaction product was measured for absorbance at 540 nm to determine the amount of nitrate or nitrite produced in the culture medium, and the results of the measurement are shown in FIG. 1.
# A standard curve was potted using NaNO2 solution, and the NO production inhibitory activity of each of the samples was evaluated by calculating NaNO2 concentration in each test group relative to the control group using the following equation 1 based on the measured absorbance and comparing the calculated NaNO2 concentration with that in the group treated with LPS alone. Inhibition rate (%) was calculated as nitrate concentration using the following equation, and then the IC50 value of the composition was calculated.
Structure (SMILES),growth of HCT 116 cells [1],pIC50 [1],pIC50 [2],"production of NO ([2]; 5, 10 and 20 μM)"
CNC(=O)[C@H]1O[C@@H](n2cnc3c(NCc4cccc(I)c4)ncnc32)[C@H](O)[C@@H]1O [IB-MECA],concentration-dependently inhibited the growth,4.21,4.18,–
"CNC(=O)[C@H]1S[C@@H](n2cnc3c(NCc4cccc(I)c4)nc(Cl)nc32)[C@H](O)[C@@H]1O [thio-Cl-IB-MECA, 2-chloro-N^6-(3-iodobenzyl)-4′-thioadenosine-5′-N-methyluronamide]",concentration-dependently inhibited the growth,4.43,4.79,inhibited in a concentration-dependent manner

# From patent US20140371244A1, “METHOD FOR TREATING PROSTATE CANCER BY USE OF PHARMACEUTICAL COMPOSITION CONTAINING A3 ADENOSINE RECEPTOR AGONIST” (priority 2009, published 2014)
